Data reported in US12064426B2, “Selective inhibitors of ROCK1 and ROCK2 protein kinases and uses thereof” (GENOSCO Inc., priority 2021, dated 2024).

How the values were obtained:
[1] = target: T1, Recombinant ROCK1 (amino acids 1-477) (Homo sapiens, UniProt Q13464); assay: ROCK inhibition assay, LANCE Ultra TR-FRET kinase assay (ROCK1); format: biochemical; details: 1 μM ATP, 50 nM ULight-CREBtide substrate
T1 construct: Recombinant ROCK1 (amino acids 1-477); by word order, ROCK1 from Carna Biosciences
In short: (§1)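 LANCE Ultra TR-FRET kinase assay with recombinant ROCK1 (aa 1-477) or ROCK2 (aa 5-554), 50 nM ULight-CREBtide and ATP at 1 μM (ROCK1) or 4 μM (ROCK2) in HEPES pH 7.5 with MgCl2, 1 h at room temperature. EDTA stop with Eu anti-phospho-CREB Ser133 antibody; 665/615 nm read gives IC50.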

[2] = target: T2, Recombinant ROCK2 (amino acids 5-554) (Homo sapiens, UniProt O75116); assay: ROCK inhibition assay, LANCE Ultra TR-FRET kinase assay (ROCK2); format: biochemical; details: 4 μM ATP, 50 nM ULight-CREBtide substrate
T2 construct: ROCK2 (amino acids 5-554); by word order, ROCK2 from SignalChem
In short: as §1

T1 sequence (Q13464 1-477): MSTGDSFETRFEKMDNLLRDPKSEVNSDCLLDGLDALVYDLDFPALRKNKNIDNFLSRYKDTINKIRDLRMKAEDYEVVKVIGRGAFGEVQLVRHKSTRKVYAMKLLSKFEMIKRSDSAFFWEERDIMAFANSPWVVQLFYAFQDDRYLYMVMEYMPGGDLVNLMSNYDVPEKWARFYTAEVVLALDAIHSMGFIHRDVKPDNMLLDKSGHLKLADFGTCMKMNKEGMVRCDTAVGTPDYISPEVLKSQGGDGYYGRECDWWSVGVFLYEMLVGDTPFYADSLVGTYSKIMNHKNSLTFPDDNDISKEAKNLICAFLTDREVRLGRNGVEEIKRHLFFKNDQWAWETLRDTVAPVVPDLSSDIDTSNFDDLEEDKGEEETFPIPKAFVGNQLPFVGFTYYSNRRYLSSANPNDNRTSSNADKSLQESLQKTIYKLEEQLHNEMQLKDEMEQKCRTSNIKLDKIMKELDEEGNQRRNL
T2 sequence (O75116 5-554): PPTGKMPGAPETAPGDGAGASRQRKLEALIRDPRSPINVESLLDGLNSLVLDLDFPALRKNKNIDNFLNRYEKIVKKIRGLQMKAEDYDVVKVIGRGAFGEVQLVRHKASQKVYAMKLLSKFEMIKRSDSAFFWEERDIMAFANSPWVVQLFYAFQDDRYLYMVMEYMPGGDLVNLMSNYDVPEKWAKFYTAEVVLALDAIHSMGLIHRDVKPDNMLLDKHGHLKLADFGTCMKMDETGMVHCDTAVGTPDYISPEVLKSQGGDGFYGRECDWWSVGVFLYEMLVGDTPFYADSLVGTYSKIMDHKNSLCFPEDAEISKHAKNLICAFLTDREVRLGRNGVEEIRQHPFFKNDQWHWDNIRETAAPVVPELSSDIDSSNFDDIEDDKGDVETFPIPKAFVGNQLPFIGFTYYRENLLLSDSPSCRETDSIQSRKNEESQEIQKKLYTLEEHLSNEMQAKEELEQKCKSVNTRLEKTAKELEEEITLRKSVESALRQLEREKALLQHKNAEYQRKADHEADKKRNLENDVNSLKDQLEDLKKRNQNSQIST

Compound	IC50 [1] [nM]	IC50 [2] [nM]
CNC(=O)c1cc(F)cc(Cn2ccc3cc(-c4cn[nH]c4Cl)ccc3c2=O)c1 [Compound 293]	11 to 100	< 10
CNC(=O)c1cc(F)cc(C(C)n2ccc3cc(-c4cn[nH]c4Cl)ccc3c2=O)c1 (stereo not drawn) [Compound 294]	11 to 100	< 10
[2H]C([2H])([2H])NC(=O)c1cccc(Cn2ccc3cc(-c4cn[nH]c4F)ccc3c2=O)c1 [Compound 296]	11 to 100	< 10
CNC(=O)c1cccc(Cn2ccc3cc(-c4cn[nH]c4F)ccc3c2=O)c1 [Compound 297]	11 to 100	< 10
CNC(=O)c1cc(F)cc(C(C)n2ccc3cc(-c4cn[nH]c4F)ccc3c2=O)c1 (stereo not drawn) [Compound 298]	11 to 100	< 10
CNC(=O)c1cccc(Cn2ccc3cc(-c4cnn(C)c4)ccc3c2=O)c1 [Compound 299]	> 501	> 500
CNC(=O)c1cccc(Cn2ccc3cc(-c4cnoc4)ccc3c2=O)c1 [Compound 300]	> 501	> 500
CNC(=O)c1cccc(Cn2ccc3cc(-c4ccoc4)ccc3c2=O)c1 [Compound 302]	> 501	> 500
CNC(=O)c1cccc(Cn2ccc3cc(-c4ccoc4C)ccc3c2=O)c1 [Compound 303]	> 501	> 500
CNC(=O)c1cccc(Cn2ccc3cc(C4=CCOC4)ccc3c2=O)c1 [Compound 304]	> 501	> 500
CNC(=O)c1cccc(Cn2ccc3cc(-c4cc[nH]c4)ccc3c2=O)c1 [Compound 305]	101 to 500	100 to 500
CNC(=O)c1cccc(Cn2ccc3cc(-c4cc[nH]c4C)ccc3c2=O)c1 [Compound 306]	101 to 500	100 to 500
CNC(=O)c1cccc(Cn2ccc3cc(-c4cn[nH]c4)ccc3c2=O)c1 [Compound 308]	< 10	< 10
CNC(=O)c1cc(F)cc(Cn2cc(Cl)c3cc(-c4conc4C)ccc3c2=O)c1 [Compound 318]	11 to 100	< 10

More lines, now with the values ahead:

IC50 [1] [nM]	IC50 [2] [nM]	Compound
> 501	> 500	CNC(=O)c1cccc(Cn2ccc3cc(-c4cnoc4C)ccc3c2=O)c1 [Compound 301]
11 to 100	< 10	[2H]C([2H])([2H])NC(=O)c1cccc(Cn2ccc3cc(-c4conc4C)ccc3c2=O)c1 [Compound 307]
11 to 100	< 10	CNC(=O)c1cccc(C(C)n2ccc3cc(-c4conc4C)ccc3c2=O)c1 (stereo not drawn) [Compound 309]
11 to 100	< 10	CNC(=O)c1cccc(Cn2cc(Cl)c3cc(-c4conc4C)ccc3c2=O)c1 [Compound 310]
> 501	100 to 500	CNC(=O)c1cccc(Cn2ccc3cc(-c4conc4C)ccc3c2=O)n1 [Compound 311]
101 to 500	10 to 100	CNC(=O)c1cncc(Cn2ccc3cc(-c4conc4C)ccc3c2=O)c1 [Compound 312]
> 501	100 to 500	CNC(=O)c1cc(Cn2ccc3cc(-c4conc4C)ccc3c2=O)ccn1 [Compound 313]
101 to 500	10 to 100	CNC(=O)c1cccc(Cn2ccc3cc(-c4conc4C)ccc3c2=O)c1F [Compound 314]
11 to 100	< 10	CNC(=O)c1cc(F)cc(C(C)n2ccc3cc(-c4conc4C)ccc3c2=O)c1 (stereo not drawn) [Compound 316]
101 to 500	10 to 100	CNC(=O)c1cc(Cn2ccc3cc(-c4conc4C)ccc3c2=O)ccc1F [Compound 317]
